Assay results taken from US9133162B2, “Substituted quinoline compounds and methods of use” (SUNSHINE LAKE PHARMA CO., LTD., priority 2011, dated 2015).
“Also recorded” adds a separate entry of the source.

What was measured:
c-Met (h) = c-Met (h) (Homo sapiens (Human), UniProt P08581); assay: c-Met (h) kinase assay (33P-ATP filter, Millipore); format: biochemical
c-Met = c-Met (Homo sapiens (Human), UniProt P08581); assay: cell-based
Method: The autophosphorylation level was determined Sandwich-ELISA technique. IC50 values are determined by testing 8 compound concentrations in semi-logarithmic steps (each concentration in duplicates). The steps of the cellular phosphorylation assay are illustrated in FIG. 1.
c-Met Phosphorylation Assay:
The human gastric adenocarcinoma cell line MKN45 is known to overexpress c-Met. c-Met overexpression results in a constitutive, ligand-independent autophosphorylation of the kinase. […] Phospho-MET signal is subsequently quantified by Sandwich-ELISA technique. The assay is validated based on known inhibitors of MET kinase activity.

U87MG glioblastoma cells = assay: U87MG tumor xenograft model, TGI; format: in vivo, athymic nude mice; details: 10 mg/kg p.o. QD, 16 days
Method: (§1) The efficacy of compounds disclosed herein was evaluated in a standard murine model of tumorigenesis. Human tumor cells (U87MG glioblastoma cells, MKN45 Gastric Adenocarcinoma cells, Caki-1 renal carcinoma cells, HUH 7 hepatocarcinoma cells, NCI-H441 lung adenocarcinoma epithelial cells, MDA-MB-231 breast adenocarcinoma cells, SMMC-7721 hepatoma cells, all from ATCC) were expended in culture, harvested, and injected subcutaneously onto the rear flank of 6-7 week old female athymic nude mice (BALB/cA nu/nu, Shanghai SLAC Laboratory Animal, Co.) (n=10 for vehicle group, n=8 for each dosing group). When tumors reached a volume of 100-250 mm^3, animals were randomly divided into vehicle control (for example, 2% HPMC+1% Tween-80 in water) and compound groups. […]
(§2) Progression of tumor growth is assessed by tumor volumes and recorded as a function of time. The long (L) and short (W) axes of the subcutaneous tumors were measured with calipers twice weekly, and the tumor volume (TV) calculated as (L×W^2)/2). TGI was calculated from the difference between the median tumor volumes of vehicle-treated and drug-treated mice, expressed as a percentage of the median tumor volume of the vehicle-treated control group, by the following relation: […]

KDR (h) (VEGF-R2(h)) = KDR (h) (VEGF-R2(h)) (Homo sapiens (Human), UniProt P35968); assay: KDR (h) (VEGF-R2(h)) kinase assay; format: biochemical
KDR (h) (VEGF-R2(h)), sequence (P35968 20-1356): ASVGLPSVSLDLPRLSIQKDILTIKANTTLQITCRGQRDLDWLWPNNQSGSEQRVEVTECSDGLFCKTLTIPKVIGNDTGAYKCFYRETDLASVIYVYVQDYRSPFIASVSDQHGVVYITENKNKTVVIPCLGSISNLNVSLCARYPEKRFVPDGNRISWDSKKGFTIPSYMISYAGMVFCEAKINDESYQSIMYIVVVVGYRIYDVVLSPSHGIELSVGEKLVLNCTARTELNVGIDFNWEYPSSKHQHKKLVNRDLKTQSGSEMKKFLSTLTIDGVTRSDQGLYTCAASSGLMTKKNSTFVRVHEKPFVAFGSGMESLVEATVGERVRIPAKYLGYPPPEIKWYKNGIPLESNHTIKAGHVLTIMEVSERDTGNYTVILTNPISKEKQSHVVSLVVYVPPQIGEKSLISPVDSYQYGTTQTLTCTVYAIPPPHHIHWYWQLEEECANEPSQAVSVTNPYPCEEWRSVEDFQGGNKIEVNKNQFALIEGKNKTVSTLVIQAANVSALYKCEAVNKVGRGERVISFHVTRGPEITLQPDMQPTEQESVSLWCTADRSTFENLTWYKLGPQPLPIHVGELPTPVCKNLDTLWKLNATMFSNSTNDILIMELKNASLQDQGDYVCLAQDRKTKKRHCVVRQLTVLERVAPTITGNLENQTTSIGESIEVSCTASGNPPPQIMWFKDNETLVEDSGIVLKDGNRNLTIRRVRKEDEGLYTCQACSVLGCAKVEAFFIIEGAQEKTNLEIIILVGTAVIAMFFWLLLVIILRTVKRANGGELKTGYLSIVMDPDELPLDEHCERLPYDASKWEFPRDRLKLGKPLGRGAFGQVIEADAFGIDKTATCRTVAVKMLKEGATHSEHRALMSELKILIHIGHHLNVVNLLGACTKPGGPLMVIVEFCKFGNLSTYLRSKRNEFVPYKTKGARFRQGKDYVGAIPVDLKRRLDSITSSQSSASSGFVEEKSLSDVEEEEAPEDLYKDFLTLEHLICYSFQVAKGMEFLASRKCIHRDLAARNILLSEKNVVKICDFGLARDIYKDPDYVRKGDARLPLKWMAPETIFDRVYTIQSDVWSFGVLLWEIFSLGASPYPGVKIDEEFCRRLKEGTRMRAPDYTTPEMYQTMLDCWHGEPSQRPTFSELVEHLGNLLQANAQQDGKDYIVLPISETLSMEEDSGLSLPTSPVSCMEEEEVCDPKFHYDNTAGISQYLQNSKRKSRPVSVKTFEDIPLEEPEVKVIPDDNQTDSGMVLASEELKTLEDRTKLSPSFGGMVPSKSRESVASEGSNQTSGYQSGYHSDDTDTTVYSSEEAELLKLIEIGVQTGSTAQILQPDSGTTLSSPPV
Method: Kinase assays can be performed by measurement of incorporation of —^33P ATP into immobilized myelin basic protein (MBP). High binding white 384 well plates (Greiner) are coated with MBP (Sigma #M-1891) by incubation of 60 μl/well of 20 μg/ml MBP in Tris-buffered saline (TBS; 50 mM Tris pH 8.0, 138 mM NaCl, 2.7 mM KCl) for 24 hours at 4° C. Plates are washed 3× with 100 μl TBS. Kinase reactions are carried out in a total volume of 34 μl in kinase buffer (5 mM Hepes pH 7.6, 15 mM NaCl, 0.01% bovine gamma globulin (Sigma #I-5506), 10 mM MgCl2, 1 mM DTT, 0.02% TritonX-100). Compound dilutions are performed in DMSO and added to assay wells to a final DMSO concentration of 1%. Each data point is measured in duplicate, and at least two duplicate assays are performed for each individual compound determination. Enzyme is added to final concentrations of 10 nM or 20 nM, for example. A mixture of unlabeled ATP and —^33P ATP is added to start the reaction (2×10^6 cpm of —^33P ATP per well (3000 Ci/mmole) and 10 μM unlabeled ATP, typically. The reactions are carried out for 1 hour at room temperature with shaking. Plates are washed 7× with TBS, followed by the addition of 50 μl/well scintillation fluid (Wallac). Plates are read using a Wallac Trilux counter. This is only one format of such assays; various other formats are possible, as known to one skilled in the art.
The above assay procedure can be used to determine the IC50 for inhibition and/or the inhibition constant, Ki. The IC50 is defined as the concentration of compound required to reduce the enzyme activity by 50% under the condition of the assay. The IC50 value is estimated by preparing a 10 point curve using a log dilution series (for example, a typical curve may be prepared using the following compound concentrations; 100 μM, 30 μM, 10 μM, 3 μM, 1 μM, 0.3 μM, 0.1 μM, 0.03 μM, 0.01 μM and […]).
The kinase assays described herein were performed at Millipore UK Ltd, Dundee Technology Park, Dundee DD2 1SW, UK
KDR (h) (VEGF-R2(h)) Assay […]

Axl (h) = Axl (h) (Homo sapiens (Human), UniProt P30530); assay: Axl (h) kinase assay; format: biochemical
Axl (h), sequence (P30530 26-894): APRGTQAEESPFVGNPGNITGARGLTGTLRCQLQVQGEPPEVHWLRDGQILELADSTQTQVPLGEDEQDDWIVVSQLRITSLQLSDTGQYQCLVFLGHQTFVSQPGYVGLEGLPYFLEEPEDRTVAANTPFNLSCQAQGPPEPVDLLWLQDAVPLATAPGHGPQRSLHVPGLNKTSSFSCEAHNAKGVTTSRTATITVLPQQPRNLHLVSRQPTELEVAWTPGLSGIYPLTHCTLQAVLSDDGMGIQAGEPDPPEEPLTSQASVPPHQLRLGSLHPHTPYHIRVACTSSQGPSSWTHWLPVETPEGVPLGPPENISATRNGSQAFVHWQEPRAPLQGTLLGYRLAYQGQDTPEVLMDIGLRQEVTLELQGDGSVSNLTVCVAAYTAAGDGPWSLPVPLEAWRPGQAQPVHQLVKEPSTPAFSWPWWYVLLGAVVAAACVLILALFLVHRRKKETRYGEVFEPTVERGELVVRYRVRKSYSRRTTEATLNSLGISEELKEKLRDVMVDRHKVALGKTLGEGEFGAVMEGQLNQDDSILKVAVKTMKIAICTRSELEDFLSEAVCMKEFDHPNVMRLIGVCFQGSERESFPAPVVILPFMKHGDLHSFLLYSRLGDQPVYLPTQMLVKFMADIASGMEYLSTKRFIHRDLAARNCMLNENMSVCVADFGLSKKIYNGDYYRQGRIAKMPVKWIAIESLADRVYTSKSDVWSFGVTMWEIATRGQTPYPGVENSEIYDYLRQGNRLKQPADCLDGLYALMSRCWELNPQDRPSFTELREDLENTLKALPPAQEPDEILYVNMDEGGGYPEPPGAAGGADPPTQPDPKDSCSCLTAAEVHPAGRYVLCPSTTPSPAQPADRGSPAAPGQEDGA
Method: Compound dilutions are performed in DMSO and added to assay wells to a final DMSO concentration of 1%. Each data point is measured in duplicate, and at least two duplicate assays are performed for each individual compound determination. Enzyme is added to final concentrations of 10 nM or 20 nM, for example.
The above assay procedure can be used to determine the IC50 for inhibition and/or the inhibition constant, Ki.
(specific activity approx. 500 cpm/pmol, concentration as required). The reaction is initiated by the addition of the MgATP mix. After incubation for 40 minutes at room temperature, the reaction is stopped by the addition of 3% phosphoric acid solution. 10 μL of the reaction is then spotted onto a P30 filtermat and washed three times for 5 minutes in 75 mM phosphoric acid and once in methanol prior to drying and scintillation counting.

[1] = tested on: Caki-1 renal carcinoma cells; assay: Caki-1 tumor xenograft model, TGI; format: in vivo, athymic nude mice; details: 20 mg/kg p.o. QD, 21 days
Method: as §1, §2

AXL = AXL (Homo sapiens (Human), UniProt P30530); assay: Axl cellular phosphorylation assay in transfected MEF cells (Sandwich-ELISA); format: cell-based; details: MEF cells expressing full-length AXL
AXL, sequence (P30530 26-894): as above
Method: (§3) The autophosphorylation level was determined Sandwich-ELISA technique.
Axl Phosphorylation Assay:
Cellular AXL phosphorylation assay was generated on a mouse embryonal fibroblast (MEF) background. Cells were transfected to express a full-length AXL protein. […] PhosphoAXL levels are quantified by Sandwich-ELISA technique.

[2] = tested on: NCI-H441 lung adenocarcinoma epithelial cells; assay: NCI-H441 tumor xenograft model, TGI; format: in vivo, athymic nude mice; details: 20 mg/kg p.o. QD, 21 days
Method: as §1, §2

[3] = tested on: HUH 7 hepatocarcinoma cells; assay: Huh-7 tumor xenograft model, TGI; format: in vivo, athymic nude mice; details: 20 mg/kg p.o. QD, 14 days
Method: as §1, §2

[4] = tested on: MDA-MB-231 breast adenocarcinoma cells; assay: MDA-MB-231 tumor xenograft model, TGI; format: in vivo, athymic nude mice; details: for TGI % (on last day of dosing) MDA-MB-231: 21 days (Day 21); for inhibition of growth of MDA-MB-231 xenograft tumors (in words): 10, 20 and 40 mg/kg p.o. QD, 21 days
Method: The efficacy of compounds disclosed herein was evaluated in a standard murine model of tumorigenesis. Human tumor cells (U87MG glioblastoma cells, MKN45 Gastric Adenocarcinoma cells, Caki-1 renal carcinoma cells, HUH 7 hepatocarcinoma cells, NCI-H441 lung adenocarcinoma epithelial cells, MDA-MB-231 breast adenocarcinoma cells, SMMC-7721 hepatoma cells, all from ATCC) were expended in culture, harvested, and injected subcutaneously onto the rear flank of 6-7 week old female athymic nude mice (BALB/cA nu/nu, Shanghai SLAC Laboratory Animal, Co.) (n=10 for vehicle group, n=8 for each dosing group). When tumors reached a volume of 100-250 mm^3, animals were randomly divided into vehicle control (for example, 2% HPMC+1% Tween-80 in water) and compound groups. Subsequent administration of compound by oral gavage (for example, 3-50 mpk/dose, dissolved in 2% HPMC+1% Tween-80 in water) begins anywhere from day 0 to day 15 post tumor cell challenge and generally continues with once a day for the duration of the experiment. The studies using tumor xenograft animal models described herein were performed at Shanghai Institute of Materia Medica, Chinese Academy of Sciences, 555 Zu Chong Zhi Road, Zhang Jiang Hi-Tech Park, Pudong, Shanghai, 201203, China.
Progression of tumor growth is assessed by tumor volumes and recorded as a function of time. The long (L) and short (W) axes of the subcutaneous tumors were measured with calipers twice weekly, and the tumor volume (TV) calculated as (L×W^2)/2). TGI was calculated from the difference between the median tumor volumes of vehicle-treated and drug-treated mice, expressed as a percentage of the median tumor volume of the vehicle-treated control group, by the following relation:
Initial statistical analysis is done by repeated measures analysis of variance (RMANOVA). Followed by Scheffe psot hoc testing for multiple comparisons. Vehicle alone (2% HPMC+1% Tween-80, or the like) is the negative control.
FIG. 2 illustrates the tumor growth inhibition effects of Example 1 in MDA-MB-231 breast adenocarcinoma model. Example 1 was administrated orally (p.o.) at doses of 10, 20 and 40 mg/kg once a day (QD), for 21 consecutive days.
FIG. 3 illustrates the tumor growth inhibition effects of Example 2 in MDA-MB-231 breast adenocarcinoma model. Example 2 was administrated orally (p.o.) at doses of 10, 20 and 40 mg/kg once a day (QD), for 21 consecutive days.

[5] = tested on: MKN45 Gastric Adenocarcinoma cells; assay: MKN45 tumor xenograft model, TGI; format: in vivo, athymic nude mice; details: 20 mg/kg p.o. QD, 16 days
Method: as §1, §2

human VEGF-R2 = human VEGF-R2 (Homo sapiens (Human), UniProt P35968); assay: VEGF-R2 cellular phosphorylation assay in HUE cells (Sandwich-ELISA); format: cell-based; details: VEGF-A stimulated
human VEGF-R2, sequence (P35968 20-1356): as the sequence (P35968 20-1356) above
Method: as §3
VEGF-R2 Phosphorylation Assay:
Immortalized human umbilical vein endothelial cells (HUE) are known to overexpress human VEGF-R2. Stimulation of these cells with its physiological ligand VEGF-A results in a robust receptor autophosphorylation. Compounds are preincubated before cell stimulation to allow thorough target binding. Stimulation conditions are optimized to determine dose-related inhibition of the phospho-VEGF-R2 signal, which is subsequently quantified by Sandwich-ELISA technique. The assay is validated based on known inhibitors of VEGF-R2 kinase activity.

c-Met (h), sequence (P08581 25-1390): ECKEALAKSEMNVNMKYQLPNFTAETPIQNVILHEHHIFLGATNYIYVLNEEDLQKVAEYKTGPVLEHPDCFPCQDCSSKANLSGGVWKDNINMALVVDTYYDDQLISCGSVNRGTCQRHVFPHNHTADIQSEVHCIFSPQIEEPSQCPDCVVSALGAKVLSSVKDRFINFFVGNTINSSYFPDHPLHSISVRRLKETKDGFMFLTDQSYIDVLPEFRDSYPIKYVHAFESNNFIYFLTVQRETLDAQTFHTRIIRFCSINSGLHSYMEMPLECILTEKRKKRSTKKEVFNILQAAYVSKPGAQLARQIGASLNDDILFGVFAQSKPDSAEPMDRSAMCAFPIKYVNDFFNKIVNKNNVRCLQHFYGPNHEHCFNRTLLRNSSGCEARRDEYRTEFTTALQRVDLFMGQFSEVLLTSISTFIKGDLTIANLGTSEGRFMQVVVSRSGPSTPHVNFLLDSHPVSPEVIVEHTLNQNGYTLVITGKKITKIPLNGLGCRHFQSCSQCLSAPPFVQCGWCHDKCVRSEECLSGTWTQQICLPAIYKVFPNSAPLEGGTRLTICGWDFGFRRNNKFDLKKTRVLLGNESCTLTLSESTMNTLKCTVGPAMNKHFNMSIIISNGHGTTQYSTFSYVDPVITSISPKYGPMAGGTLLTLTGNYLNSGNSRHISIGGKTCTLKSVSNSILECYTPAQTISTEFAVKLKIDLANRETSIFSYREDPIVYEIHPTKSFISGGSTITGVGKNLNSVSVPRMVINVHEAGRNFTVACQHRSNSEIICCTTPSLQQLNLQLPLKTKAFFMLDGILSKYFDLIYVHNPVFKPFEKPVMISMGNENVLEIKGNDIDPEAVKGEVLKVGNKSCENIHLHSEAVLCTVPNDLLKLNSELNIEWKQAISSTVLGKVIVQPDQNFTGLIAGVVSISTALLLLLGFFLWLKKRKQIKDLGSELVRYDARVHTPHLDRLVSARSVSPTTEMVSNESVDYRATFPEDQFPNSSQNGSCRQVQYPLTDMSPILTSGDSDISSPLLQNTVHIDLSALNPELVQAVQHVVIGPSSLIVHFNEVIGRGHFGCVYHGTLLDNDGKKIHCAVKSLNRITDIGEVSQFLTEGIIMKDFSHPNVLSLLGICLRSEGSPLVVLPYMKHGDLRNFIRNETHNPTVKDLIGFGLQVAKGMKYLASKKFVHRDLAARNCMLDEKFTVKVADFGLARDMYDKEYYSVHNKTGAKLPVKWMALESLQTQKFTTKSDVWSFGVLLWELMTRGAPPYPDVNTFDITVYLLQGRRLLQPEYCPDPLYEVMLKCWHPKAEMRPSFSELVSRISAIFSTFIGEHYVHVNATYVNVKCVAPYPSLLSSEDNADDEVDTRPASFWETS
c-Met, sequence (P08581 25-1390): as above

Compound: Cc1c(C(=O)Nc2ccc(Oc3ccnc4cc(OCC(C)(C)O)ccc34)c(F)c2)c(=O)n(-c2ccccc2)n1C [Example 1, N-(3-fluoro-4-((7-(2-hydroxy-2-methylpropoxy)quinolin-4-yl)oxy)phenyl)-1,5-dimethyl-3-oxo-2-phenyl-2,3-dihydro-1H-pyrazole-4-carboxamide]
- IC50 (c-Met (h)): 19 nM
- IC50 (c-Met): 6.9 nM
- TGI % (on last day of dosing) U87MG (U87MG glioblastoma cells): 98%
- IC50 (KDR (h) (VEGF-R2(h))): 37 nM
- IC50 (Axl (h)): 11 nM
- TGI % (on last day of dosing) Caki-1 [1]: 87%
- IC50 (AXL): < 1 nM
- TGI % (on last day of dosing) NCI-H441 [2]: 97%
- TGI % (on last day of dosing) Huh-7 [3]: 53%
- TGI % (on last day of dosing) MDA-MB-231 ([4]; 10 mg/kg p.o. QD): 97%
- TGI % (on last day of dosing) MDA-MB-231 ([4]; 20 mg/kg p.o. QD): 112%
- TGI % (on last day of dosing) MDA-MB-231 ([4]; 40 mg/kg p.o. QD): 120%
- inhibition of growth of MDA-MB-231 xenograft tumors (in words) [4]: inhibited the growth; also recorded: statistically significant, dose-dependent inhibition
- TGI % (on last day of dosing) MKN45 [5]: 97%
- IC50 (human VEGF-R2): 1.7 nM

Compound: Cc1c(C(=O)Nc2ccc(Oc3ccnc4cc(OC[C@@H](C)O)ccc34)c(F)c2)c(=O)n(-c2ccccc2)n1C [Example 2, (R)—N-(3-fluoro-4-((7-(2-hydroxypropoxy)quinolin-4-yl)oxy)phenyl)-1,5-dimethyl-3-oxo-2-phenyl-2,3-dihydro-1H-pyrazole-4-carboxamide]
- IC50 (c-Met (h)): 7 nM
- IC50 (KDR (h) (VEGF-R2(h))): 23 nM
- TGI % (on last day of dosing) MDA-MB-231 ([4]; 10 mg/kg p.o. QD): 72%
- TGI % (on last day of dosing) MDA-MB-231 ([4]; 20 mg/kg p.o. QD): 87%
- TGI % (on last day of dosing) MDA-MB-231 ([4]; 40 mg/kg p.o. QD): 96%
- inhibition of growth of MDA-MB-231 xenograft tumors (in words) [4]: inhibited the growth; also recorded: statistically significant, dose-dependent inhibition
- TGI % (on last day of dosing) MKN45 [5]: 22%

Compound: COc1cc2c(Oc3ccc(NC(=O)c4c(C)n(C)n(-c5ccccc5)c4=O)cc3F)ccnc2cc1OCC(C)(C)O [Example 4, N-(3-fluoro-4-((7-(2-hydroxy-2-methylpropoxy)-6-methoxyquinolin-4-yl)oxy)phenyl)-1,5-dimethyl-3-oxo-2-phenyl-2,3-dihydro-1H-pyrazole-4-carboxamide]
- IC50 (c-Met (h)): 10 nM
- IC50 (KDR (h) (VEGF-R2(h))): 40 nM

Compound: Cc1c(C(=O)Nc2ccc(Oc3ccnc4cc(OCC(C)(C)O)ccc34)cc2)c(=O)n(-c2ccccc2)n1C [Example 9, N-(4-((7-(2-hydroxy-2-methylpropoxy)quinolin-4-yl)oxy)phenyl)-1,5-dimethyl-3-oxo-2-phenyl-2,3-dihydro-1H-pyrazole-4-carboxamide]
- IC50 (c-Met (h)): 13 nM
- TGI % (on last day of dosing) U87MG (U87MG glioblastoma cells): 97%

Compound: Cc1c(C(=O)Nc2ccc(Oc3ccnc4cc(OC[C@@H](C)O)ccc34)cc2)c(=O)n(-c2ccccc2)n1C [Example 11, (R)—N-(4-((7-(2-hydroxypropoxy)quinolin-4-yl)oxy)phenyl)-1,5-dimethyl-3-oxo-2-phenyl-2,3-dihydro-1H-pyrazole-4-carboxamide]
- IC50 (c-Met (h)): 15 nM

Compound: Cc1c(C(=O)Nc2ccc(Oc3ccnc4cc(OC[C@H](C)O)ccc34)cc2)c(=O)n(-c2ccccc2)n1C [Example 12, (S)—N-(4-((7-(2-hydroxypropoxy)quinolin-4-yl)oxy)phenyl)-1,5-dimethyl-3-oxo-2-phenyl-2,3-dihydro-1H-pyrazole-4-carboxamide]
- IC50 (c-Met (h)): 13 nM

Compound: Cc1c(C(=O)Nc2ccc(Oc3ccnc4cc(OC(C)(C)CO)ccc34)c(F)c2)c(=O)n(-c2ccccc2)n1C [Example 14, N-(3-fluoro-4-((7-((1-hydroxy-2-methylpropan-2-yl)oxy)quinolin-4-yl)oxy)phenyl)-1,5-dimethyl-3-oxo-2-phenyl-2,3-dihydro-1H-pyrazole-4-carboxamide]
- IC50 (c-Met (h)): 27 nM
